Measurements from patent publication US20100055183A1 (OsteoGeneX Inc., priority 2008, published 2010).

How the values were obtained:
mouse = test: Mouse bone formation assay, micro-CT after complete dosing schedule; type: in vivo; conditions: versus control solution
Source text: (§1) Compounds useful in the methods of the present invention can be identified via a variety of methods known to one of skill in the art. Several exemplary methods for identifying such antagonists are described herein, including cell-based and in vitro techniques (Journal of Bone and Mineral Research 2006, 21(11), 1738-1749). A general method of identifying SOST antagonists involves evaluating the effects of antagonist candidates on bone formation under controlled conditions. Preferably bone formation is determined using micro-CT techniques on live animals. Preferred animals include rodents, more preferred are primates. Femur, tibia and vertebrae bones are particularly useful subjects for such study.
Briefly, the test animal is treated with a predetermined dose of a SOST antagonist candidate. […]
Once the dosing schedule has been completed, both test and control animals are examined to determine the quantity of bone formation present. […] Where necessary, levels of bone formation can be calculated by determining the volume of bone formation present in each animal. […]
For example, the mouse test animal is treated with a predetermined dose of a SOST antagonist candidate for a complete dosing schedule. […] Once the dosing schedule has been completed, both test and control animals are examined with sacrifice using micro-CT to determine the quantity of bone formation present.

Wnt pathway = test: Modulation of the Wnt pathway (FIGS. 1 and 2); conditions: doses of 2.5 ng (low), 60 ng (medium), 125 ng (high)
Source text: as §1

C57BL/6 mice [1] = test: Serum osteocalcin bone formation marker, EIA Elisa, in treated mice; type: in vivo, mouse; conditions: four month old male C57BL/6 mice, 5 mg/kg, daily i.p. for 30 days
Source text: […] Study endpoints included a biochemical marker of bone formation; osteocalcin, measured by EIA Elisa, and measurement of tibia trabecular bone volume by mico-CT analysis.

C57BL/6 mice [2] = test: Bone volume in treated mice by pQCT / micro-CT analysis; type: in vivo, mouse; conditions: four month old male C57BL/6 mice, 0.1 mg/kg, daily i.p. for 30 days
Procedure: Four month old male C57BL/6 mice were treated daily with saline vehicle or the sclerostin inhibitor of trimeprazine tartrate at 0.1 mg/kg (via i.p) for 30 days. […]

Compound | bone growth (quantity of bone formation present) (mouse) | modulation of the Wnt pathway to promote bone growth (Wnt pathway) | percent increase in serum osteocalcin bone formation marker over saline controls (C57BL/6 mice [1]) | increase in bone volume for the femur over baseline controls (C57BL/6 mice [2])
CCN(CC)C(C)CN1c2ccccc2Sc2ccccc21 (stereo not drawn) [ethopropazine] | promoting bone growth | modulating the Wnt pathway | – | –
CC(CN(C)C)CN1c2ccccc2Sc2ccccc21 (stereo not drawn) [trimeprazine] | promoting bone growth | modulating the Wnt pathway | – | –
trimeprazine tartrate | – | – | 46% | about 8%
